Test results from patent US20260216198A1, “GPR35 MODULATORS” (ThirtyFiveBio Limited, priority 2023, published 2026).

Target: T1, GPR35 (Homo sapiens, UniProt Q9HC97)
T1 construct: expressed in transfected cells; host or cells: CHO-K1 cells co-expressing mitochondrial aequorin and Gα16
Assay: cellular GPR35 phospho-ERK HTRF assay (inhibition of lodoxamide-induced phospho-ERK signal)
Assay type: cell-based
Settings: GPR35-CHO-K1-mt aequorin-Gα16 cell line; agonist lodoxamide at EC80; read-out: Activity Group (IC50, inhibition of GPR35 agonist-induced phospho-ERK signal)
Text: (§1) The functional GPR35 assay as described in the accompanying examples measures the ability of GPR35 modulators to inhibit a GPR35 agonist-induced phospho-ERK signal. This is expressed as the concentration of modulator required to reduce the phospho-ERK signal by 50 percent, i.e. the IC50; the signal window being defined as the difference between agonist plus modulator vehicle (no modulator) and agonist vehicle (no agonist) controls.
as §1, with “functional” for “functional GPR35”, “assay” for “assay as”, “described” for “described in the accompanying examples”
This assay is a cellular GPR35 phospho-ERK homogeneous time resolved fluorescence (HTRF) assay using the GPR35-CHO-K1-mt aequorin-Gα16 cell line. Upon activation of GPR35 with the agonist lodoxamide at EC80 concentration, ERK 1/2 is phosphorylated, and after lysis of the cell membrane, phospho-ERK1/2 (Thr202/Tyr204) is detected in a sandwich assay using two different specific antibodies, one labelled with Eu^3+-cryptate (donor) and the second with d2 (acceptor). When the dyes are in proximity, the excitation of the donor with a light source (laser or flash lamp) triggers a Fluorescence Resonance Energy Transfer (FRET) towards the acceptor, resulting in specific acceptor fluorescence (at 665 nm). The specific signal is directly proportional to the amount of phospho-ERK1/2 (Thr202/Tyr204) in the sample. Compounds that interfere with the levels of phospho-ERK1/2 (Thr202/Tyr204) will result in a low HTRF signal.

T1 sequence (Q9HC97 whole entry): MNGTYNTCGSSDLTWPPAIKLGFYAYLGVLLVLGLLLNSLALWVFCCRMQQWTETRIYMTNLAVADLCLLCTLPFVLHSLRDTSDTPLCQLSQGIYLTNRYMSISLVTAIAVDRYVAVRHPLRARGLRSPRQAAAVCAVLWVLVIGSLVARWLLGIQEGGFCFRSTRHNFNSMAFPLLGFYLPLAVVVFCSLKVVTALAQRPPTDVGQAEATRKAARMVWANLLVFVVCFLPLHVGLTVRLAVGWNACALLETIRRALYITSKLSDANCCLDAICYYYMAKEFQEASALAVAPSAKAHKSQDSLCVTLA

Compound | IC50 [nM]
Cc1ncc(-c2cccc(C(=O)Nc3cccc(COCc4ccccc4)c3)c2)cc1C(=O)O [Example 40, 5-(3-((3-((Benzyloxy)methyl)phenyl)carbamoyl)phenyl)-2-methylnicotinic acid] | 1000 to 10000
O=C(Nc1cccc(-c2cccc(C(=O)O)n2)c1)c1ccc(OCCCCc2ccccc2)cc1 [Example 48, 6-(3-(4-(4-Phenylbutoxy)benzamido)phenyl)picolinic acid] | < 1000
Cc1ncc(-c2ncc(C(=O)Nc3ccc(COCc4ccccc4)cc3)s2)cc1C(=O)O [Example 49, 5-(5-((4-((Benzyloxy)methyl)phenyl)carbamoyl)thiazol-2-yl)-2-methylnicotinic acid] | 1000 to 10000
Cc1ncc(-c2ccc(F)c(C(=O)Nc3ccc(COC4CC4)c(F)c3)c2)cc1C(=O)O [Example 91, 5-[3-[[4-(Cyclopropoxymethyl)-3-fluoro-phenyl]carbamoyl]-4-fluoro-phenyl]-2-methyl-pyridine-3-carboxylic acid] | 1000 to 10000
COc1ncc(-c2cccc(C(=O)Nc3ccc(OCCc4ccccc4)cc3)c2)cc1C(=O)O [Example 17, 2-Methoxy-5-(3-((4-phenethoxyphenyl)carbamoyl)phenyl)nicotinic acid] | < 1000
O=C(Nc1ccc(COCC2CC2)cc1)c1cccc(-c2cnc(Cl)c(C(=O)O)c2)c1 [Example 45, 2-Chloro-5-(3-((4-((cyclopropylmethoxy)methyl)phenyl)carbamoyl)phenyl)nicotinic acid] | 1000 to 10000
Cn1cc(-c2cccc(C(=O)Nc3ccc(OCCc4ccccc4)cc3)c2)cc(C(=O)O)c1=O [Example 31, 1-Methyl-2-oxo-5-(3-((4-phenethoxyphenyl)carbamoyl)phenyl)-1,2-dihydropyridine-3-carboxylic acid] | 1000 to 10000
O=C(O)Cc1cncc(-c2cccc(C(=O)Nc3ccc(OCCc4ccccc4)cc3)c2)c1 [Example 6, 2-(5-(3-((4-Phenethoxyphenyl)carbamoyl)phenyl)pyridin-3-yl)acetic acid] | < 1000
O=C(Nc1ccc(OCCc2ccccc2)cc1)c1cccc(-c2cccc(C(=O)O)n2)c1 [Example 18, 6-(3-((4-Phenethoxyphenyl)carbamoyl)phenyl)picolinic acid] | < 1000
O=C(Nc1ccc(OCCc2ccccc2)cc1)c1cccc(-c2cnc(F)c(C(=O)O)c2)c1 [Example 11, 2-Fluoro-5-(3-((4-phenethoxyphenyl)carbamoyl)phenyl)nicotinic acid] | < 1000
O=C(Nc1ccc(OCCc2ccccc2)cc1)c1cccc(-c2cnnc(C(=O)O)c2)c1 [Example 28, 5-(3-((4-Phenethoxyphenyl)carbamoyl)phenyl)pyridazine-3-carboxylic acid] | < 1000
O=C(Nc1ccc(OCCc2ccccc2)cc1)c1cccc(-c2cnc(NCCO)c(C(=O)O)c2)c1 [Example 36, 2-((2-Hydroxyethyl)amino)-5-(3-((4-phenethoxyphenyl)carbamoyl)phenyl)nicotinic acid] | < 1000
CNc1ncc(-c2cccc(C(=O)Nc3ccc(OCCc4ccccc4)cc3)c2)cc1C(=O)O [Example 34, 2-(Methylamino)-5-(3-((4-phenethoxyphenyl)carbamoyl)phenyl)nicotinic acid] | < 1000
Cc1ncc(-c2cccc(C(=O)Nc3ccc(COCc4ccccc4)cc3F)c2)cc1C(=O)O [Example 47, 5-(3-((4-((Benzyloxy)methyl)-2-fluorophenyl)carbamoyl)phenyl)-2-methylnicotinic acid] | 1000 to 10000
Cc1ncc(-c2ccnc(C(=O)Nc3ccc(OCCc4ccccc4)cc3)c2)cc1C(=O)O [Example 70, 2-Methyl-5-[2-[[4-(2-phenylethoxy)phenyl]carbamoyl]-4-pyridyl]pyridine-3-carboxylic acid] | < 1000

Results, then the compound that gave them:

IC50 [nM] | Compound
1000 to 10000 | COCCOc1ncc(C(=O)Nc2ccc(OCCc3ccccc3)cc2)cc1-c1cnc(C)c(C(=O)O)c1 [Example 95, 5-[2-(2-Methoxyethoxy)-5-[[4-(2-phenylethoxy)phenyl]carbamoyl]-3-pyridyl]-2-methyl-pyridine-3-carboxylic acid]
< 1000 | Nc1ncc(-c2cccc(C(=O)Nc3ccc(OCCc4ccccc4)cc3)c2)cc1C(=O)O [Example 12, 2-Amino-5-(3-((4-phenethoxyphenyl)carbamoyl)phenyl)nicotinic acid]
< 1000 | Cc1ncc(-c2cccc(C(=O)Nc3ccc(COCc4ccccc4)cc3)c2)cc1C(=O)O [Example 39, 5-(3-((4-((Benzyloxy)methyl)phenyl)carbamoyl)phenyl)-2-methylnicotinic acid]
< 1000 | O=C(Nc1ccc(OCCc2ccccc2)cc1)c1cccc(-c2c[nH]c(=O)c(C(=O)O)c2)c1 [Example 3, 2-oxo-5-(3-((4-Phenethoxyphenyl)carbamoyl)phenyl)-1,2-dihydropyridine-3-carboxylic acid]
1000 to 10000 | NC(=O)c1ncc(-c2cccc(C(=O)Nc3ccc(OCCc4ccccc4)cc3)c2)cc1C(=O)O [Example 29, 2-Carbamoyl-5-(3-((4-phenethoxyphenyl)carbamoyl)phenyl)nicotinic acid]
< 1000 | O=C(Nc1ccc(OCCc2ccccc2)cc1)c1cccc(-c2cnc(NC3CC3)c(C(=O)O)c2)c1 [Example 38, 2-(Cyclopropylamino)-5-(3-((4-phenethoxyphenyl)carbamoyl)phenyl)nicotinic acid]
< 1000 | O=C(Nc1ccc(OCCc2ccccc2)cc1)c1cccc(-c2cnc(C(F)(F)F)c(C(=O)O)c2)c1 [Example 4, 5-(3-((4-Phenethoxyphenyl)carbamoyl)phenyl)-2-(trifluoromethyl)nicotinic acid]
1000 to 10000 | Cc1ncc(C(=O)O)cc1-c1cccc(C(=O)Nc2ccc(OCCc3ccccc3)cc2)c1 [Example 25, 6-Methyl-5-(3-((4-phenethoxyphenyl)carbamoyl)phenyl)nicotinic acid]
< 1000 | O=C(Nc1ccc(OCCc2ccccc2)cc1)c1cccc(-c2cnc(C3CC3)c(C(=O)O)c2)c1 [Example 2, 2-Cyclopropyl-5-(3-((4-phenethoxyphenyl)carbamoyl)phenyl)nicotinic acid]
< 1000 | Cc1ccc(-c2cccc(C(=O)Nc3ccc(OCCc4ccccc4)cc3)c2)nc1C(=O)O [Example 8, 3-Methyl-6-(3-((4-phenethoxyphenyl)carbamoyl)phenyl)picolinic acid]
< 1000 | Cc1ncc(-c2cccc(C(=O)Nc3ccc(OC(C)C4CC4)cc3)c2)cc1C(=O)O (centres unmarked) [Example 60, 5-[3-[[4-(1-Cyclopropylethoxy)phenyl]carbamoyl]phenyl]-2-methyl-pyridine-3-carboxylic acid]
1000 to 10000 | O=C(Nc1ccc(OCCc2ccccc2)nc1)c1cccc(-c2cccc(C(=O)O)n2)c1 [Example 46, 6-(3-((6-Phenethoxypyridin-3-yl)carbamoyl)phenyl)picolinic acid]
< 1000 | O=C(Nc1ccc(OCCc2ccccc2)cc1)c1cccc(-c2ccnc(C(=O)O)n2)c1 [Example 7, 4-(3-((4-Phenethoxyphenyl)carbamoyl)phenyl)pyrimidine-2-carboxylic acid]
< 1000 | CS(=O)(=O)Nc1ncc(-c2cccc(C(=O)Nc3ccc(OCCc4ccccc4)cc3)c2)cc1C(=O)O [Example 30, 2-(Methylsulfonamido)-5-(3-((4-phenethoxyphenyl)carbamoyl)phenyl)nicotinic acid]
< 1000 | O=C(O)c1ccnc(-c2cccc(C(=O)Nc3ccc(OCCc4ccccc4)cc3)c2)c1 [Example 13, 2-(3-((4-Phenethoxyphenyl)carbamoyl)phenyl)isonicotinic acid]
1000 to 10000 | O=C(O)c1cnc(O)c(-c2cccc(C(=O)Nc3ccc(OCCc4ccccc4)cc3)c2)c1 [Example 66, 6-Hydroxy-5-[3-[[4-(2-phenylethoxy)phenyl]carbamoyl]phenyl]pyridine-3-carboxylic acid]
1000 to 10000 | Cc1ncc(-c2ccc(F)c(C(=O)Nc3ccc(OC(C)C4CC4)c(C#N)c3)c2)cc1C(=O)O (centres unmarked) [Example 93, 5-[3-[[3-Cyano-4-(1-cyclopropylethoxy)phenyl]carbamoyl]-4-fluoro-phenyl]-2-methyl-pyridine-3-carboxylic acid]
< 1000 | O=C(Nc1ccc(OCCc2ccccc2)cc1)c1cccc(-c2nccc(C(=O)O)n2)c1 [Example 22, 2-(3-((4-Phenethoxyphenyl)carbamoyl)phenyl)pyrimidine-4-carboxylic acid]
1000 to 10000 | Cc1ncc(-c2cc(C(=O)Nc3ccc(OCC4CC4)cc3)c(F)cn2)cc1C(=O)O [Example 73, 5-[4-[[4-(Cyclopropylmethoxy)phenyl]carbamoyl]-5-fluoro-2-pyridyl]-2-methyl-pyridine-3-carboxylic acid]
1000 to 10000 | Cc1ncc(-c2cccc(C(=O)Nc3ccc(COC4CC4)cc3)c2)cc1C(=O)O [Example 42, 5-(3-((4-(Cyclopropoxymethyl)phenyl)carbamoyl)phenyl)-2-methylnicotinic acid]
